Test results from patent US10336725B2, “Chemical compounds” (AstraZeneca AB, priority 2014, dated 2019).
Structures can show the parent of a compound that is named as a salt.

Biological target: T1, Sodium Channel ENaC (Homo sapiens, UniProt P37088+P51168+P51170)
T1 construct: Human primary bronchial epithelial cells differentiated at air-liquid interface (ALI); host or cells: Human primary bronchial epithelial cells differentiated at air-liquid interface
T1 sequence (P37088 1-669): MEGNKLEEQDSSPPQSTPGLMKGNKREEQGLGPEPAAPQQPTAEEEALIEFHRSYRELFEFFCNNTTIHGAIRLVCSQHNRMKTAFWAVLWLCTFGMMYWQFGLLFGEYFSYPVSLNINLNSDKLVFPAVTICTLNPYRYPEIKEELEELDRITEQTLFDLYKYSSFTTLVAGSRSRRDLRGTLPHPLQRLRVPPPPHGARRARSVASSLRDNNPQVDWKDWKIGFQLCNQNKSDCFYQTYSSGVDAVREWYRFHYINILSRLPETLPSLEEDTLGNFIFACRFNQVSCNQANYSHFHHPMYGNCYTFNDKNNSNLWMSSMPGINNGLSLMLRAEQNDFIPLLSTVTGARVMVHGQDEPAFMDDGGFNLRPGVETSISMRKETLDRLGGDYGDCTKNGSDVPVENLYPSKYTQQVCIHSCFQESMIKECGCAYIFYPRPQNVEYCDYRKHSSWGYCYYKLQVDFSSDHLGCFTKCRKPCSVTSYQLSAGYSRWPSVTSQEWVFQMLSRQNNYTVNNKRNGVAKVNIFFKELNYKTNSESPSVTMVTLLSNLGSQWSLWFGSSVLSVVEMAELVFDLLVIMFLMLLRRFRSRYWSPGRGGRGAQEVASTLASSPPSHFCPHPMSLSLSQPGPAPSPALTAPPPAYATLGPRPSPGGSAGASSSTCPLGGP
T1 sequence (P51168 1-640): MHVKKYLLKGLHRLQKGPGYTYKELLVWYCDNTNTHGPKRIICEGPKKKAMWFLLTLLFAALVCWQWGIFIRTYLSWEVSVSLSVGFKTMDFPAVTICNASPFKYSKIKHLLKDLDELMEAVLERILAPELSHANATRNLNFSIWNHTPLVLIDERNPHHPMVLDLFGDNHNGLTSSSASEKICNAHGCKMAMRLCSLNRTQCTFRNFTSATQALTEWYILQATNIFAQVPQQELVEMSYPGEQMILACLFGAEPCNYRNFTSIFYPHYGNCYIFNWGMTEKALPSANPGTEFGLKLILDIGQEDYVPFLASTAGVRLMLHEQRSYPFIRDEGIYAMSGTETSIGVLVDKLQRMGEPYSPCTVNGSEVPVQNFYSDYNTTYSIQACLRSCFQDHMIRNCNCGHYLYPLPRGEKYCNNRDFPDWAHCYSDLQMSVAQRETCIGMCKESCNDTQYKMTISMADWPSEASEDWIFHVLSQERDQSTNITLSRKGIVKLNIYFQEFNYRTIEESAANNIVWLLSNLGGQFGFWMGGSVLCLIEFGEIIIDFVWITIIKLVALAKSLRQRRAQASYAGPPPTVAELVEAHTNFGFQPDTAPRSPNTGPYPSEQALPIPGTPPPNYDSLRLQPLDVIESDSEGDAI
T1 sequence (P51170 1-649): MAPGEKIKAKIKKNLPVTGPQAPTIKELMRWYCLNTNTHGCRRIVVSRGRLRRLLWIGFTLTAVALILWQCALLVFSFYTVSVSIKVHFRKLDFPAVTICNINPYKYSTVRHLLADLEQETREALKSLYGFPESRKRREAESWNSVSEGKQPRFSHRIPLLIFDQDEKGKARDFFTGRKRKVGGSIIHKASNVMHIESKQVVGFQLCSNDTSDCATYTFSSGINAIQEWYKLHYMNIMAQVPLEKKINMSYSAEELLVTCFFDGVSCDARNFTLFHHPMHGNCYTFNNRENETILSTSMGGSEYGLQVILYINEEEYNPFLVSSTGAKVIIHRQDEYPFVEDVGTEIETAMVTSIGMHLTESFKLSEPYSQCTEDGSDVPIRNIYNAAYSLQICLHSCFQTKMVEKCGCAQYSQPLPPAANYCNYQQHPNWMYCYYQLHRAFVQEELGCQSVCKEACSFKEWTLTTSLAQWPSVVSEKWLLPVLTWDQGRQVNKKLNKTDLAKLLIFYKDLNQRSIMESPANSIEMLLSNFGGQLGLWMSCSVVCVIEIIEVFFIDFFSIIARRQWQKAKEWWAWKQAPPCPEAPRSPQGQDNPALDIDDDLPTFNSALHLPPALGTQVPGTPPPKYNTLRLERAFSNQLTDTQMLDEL
Assay: Sodium Channel ENaC Ussing Chamber Test (short circuit current)
Format: cell-based
Conditions: human primary bronchial epithelial cells at air-liquid interface; inhibition of short circuit current; compounds added to the apical side
Experimental: Sodium Channel ENaC Ussing Chamber Test
Human primary bronchial epithelial cells differentiated at air-liquid interface (ALI) on snapwell permeable supports (MatTek Corporation, MA, USA, cat no AIR-100-SNP) were maintained at ALI culture in a humidified incubator at 37° C. and 5% CO2. Basolateral medium (MatTek Corporation, MA, USA cat no AIR-100-MM-ASY) was changed every second day. Mucus or liquid formed on the apical side was gently aspirated every second day to maintain viability and performance of the cells.
The transepithelial voltage between the luminal/apical and basolateral membrane were measured in the ussing chamber consisted of vertical, in-house manufactured ussing chambers, DVC-1000 V/C clamps with preamplifiers (World Precision Instruments), electrode kits (EK1, World Precision Instruments), Power Lab with Chart5 software, water bath with external circulation and carbogen gas distribution and regulation system. Electrodes used in the set up were casted manually using 4% agarose in 0.9% sterile NaCl according to the manufacturer's recommendation.
The ussing chambers were assembled with an empty snapwell membrane (Costar 3407) and electrodes contained in Kreb's buffer (SIGMA-ALDRICH cat no K3753) for one hour at 37° C. in presence of 95% oxygen and 5% carbon dioxide. After this equilibration step the system was compensated for fluid resistance and input offset.
The equilibrated chambers were reassembled with a snapwell containing ALI cells and after 20 minutes stabilisation cumulative doses of the compounds were added to the apical side of the membrane. After the final dose 10 μM Benzamil was added to reach maximum.
All test compounds, including the reference compound, were diluted from 10 mM stocks in 100% DMSO and added to opaque 96-well plates (Greiner, Cat No. 651201). Dilution series of 12 doses were prepared in DMSO, starting with 3 μM followed by 10 times dilution steps.
Chart5 for Windows software was used to measure the value of the short circuit current after each compound addition. The data was transferred into Excel and analysed using IDBS XLfit® 5.2 (ID Business Solutions Ltd). The molar concentration of test or reference compound producing 50% inhibition (curve IC50) was derived by fitting data to a 4-parameter logistic function of the form: y=(A+((B−A)/(1+(((10^C)/x)^D))))
A The bottom plateau of the curve, i.e. the final minimum y value
B The top of the plateau of the curve i.e. the final maximum y value
C The log10 x value at a y value of 50%.

Question: Which IC50 does the source give for `Cc1ccccc1C[C@H](CNCC1CCN(C(=O)CCNC[C@H](O)[C@@H](O)[C@H](O)CO)CC1)CNC(=O)c1nc(Cl)c(N)nc1N` [Example 1, 3,5-diamino-6-chloro-N—((R)-2-(2-methylbenzyl)-3-(((1-(3-(((2S,3R,4R)-2,3,4,5-tetrahydroxypentyl)amino)propanoyl)piperidin-4-yl)methyl)amino)propyl)pyrazine-2-carboxamide] here?
Answer: 0.316 nM

Question: How did the IC50 turn out when `CCCCCCN(CCNC(=O)c1ccc(CNC[C@H](CNC(=O)c2nc(Cl)c(N)nc2N)Cc2ccccc2C)cc1)C[C@H](O)[C@@H](O)[C@H](O)CO` [Example 2, 3,5-diamino-6-chloro-N—((R)-3-((4-((2-(hexyl((2S,3R,4R)-2,3,4,5-tetrahydroxypentyl)amino)ethyl)carbamoyl)benzyl)amino)-2-(2-methylbenzyl)propyl)pyrazine-2-carboxamide] was run?
Answer: 2.51 nM

Question: For `CCCCCCN(CCNC(=O)N1CCC(CNC[C@H](CNC(=O)c2nc(Cl)c(N)nc2N)Cc2ccccc2C)CC1)C[C@H](O)[C@@H](O)[C@H](O)[C@H](O)CO` [Example 3, 3,5-diamino-6-chloro-N—((R)-3-((1-(2-(hexyl((2S,3R,4R,5R)-2,3,4,5,6-pentahydroxyhexyl)amino)ethylcarbamoyl)piperidin-4-yl)methylamino)-2-(2-methylbenzyl)propyl)pyrazine-2-carboxamide], which IC50 is on record?
Answer: 0.0794 nM

Question: Which IC50 does the source give for `CCCCCCN(CCC(=O)N1CCC(CNC[C@H](CNC(=O)c2nc(Cl)c(N)nc2N)Cc2ccccc2C)CC1)C[C@H](O)[C@@H](O)[C@H](O)[C@H](O)CO` [Example 4, 3,5-diamino-6-chloro-N—((R)-3-((1-(3-(hexyl((2S,3R,4R,5R)-2,3,4,5,6-pentahydroxyhexyl)amino)propanoyl)piperidin-4-yl)methylamino)-2-(2-methylbenzyl)propyl)pyrazine-2-carboxamide] here?
Answer: 0.631 nM

Question: How did the IC50 turn out when `CCCCCCN(CCC(=O)N1CCC(CNC[C@H](CNC(=O)c2nc(Cl)c(N)nc2N)Cc2ccccc2C)CC1)C[C@H](O)[C@@H](O)[C@H](O)CO` [Example 5, 3,5-diamino-6-chloro-N—((R)-3-((1-(3-(hexyl((2S,3R,4R)-2,3,4,5-tetrahydroxypentyl)amino)propanoyl)piperidin-4-yl)methylamino)-2-(2-methylbenzyl)propyl)pyrazine-2-carboxamide] was run?
Answer: 1 nM

Question: With `CCCCCCN(CCCC(=O)N1CCC(CNC[C@H](CNC(=O)c2nc(Cl)c(N)nc2N)Cc2ccccc2C)CC1)C[C@H](O)[C@@H](O)[C@H](O)[C@H](O)CO` [Example 6, 3,5-diamino-6-chloro-N—((R)-3-((1-(4-(hexyl((2S,3R,4R,5R)-2,3,4,5,6-pentahydroxyhexyl)amino)butanoyl)piperidin-4-yl)methylamino)-2-(2-methylbenzyl)propyl)pyrazine-2-carboxamide] as the molecule, how does the IC50 read?
Answer: 0.316 nM

Question: For `Cc1ccccc1C[C@H](CNCC1CCN(C(=O)CCNC[C@H](O)[C@@H](O)[C@H](O)[C@H](O)CO)CC1)CNC(=O)c1nc(Cl)c(N)nc1N` [Example 7, 3,5-diamino-6-chloro-N—((R)-2-(2-methylbenzyl)-3-((1-(3-((2S,3R,4R,5R)-2,3,4,5,6-pentahydroxyhexylamino)propanoyl)piperidin-4-yl)methylamino)propyl)pyrazine-2-carboxamide], which IC50 is on record?
Answer: 1.26 nM

Question: For `CCCCCCN(CCC(=O)N1CCC(CNC[C@H](CNC(=O)c2nc(Cl)c(N)nc2N)Cc2ccccc2C)CC1)C[C@@H](O)[C@@H](O)[C@H](O)[C@H](O)CO` [Example 8, 3,5-diamino-6-chloro-N—((R)-3-((1-(3-(hexyl((2R,3R,4R,5R)-2,3,4,5,6-pentahydroxyhexyl)amino)propanoyl)piperidin-4-yl)methylamino)-2-(2-methylbenzyl)propyl)pyrazine-2-carboxamide], which IC50 is on record?
Answer: 0.316 nM

Question: `CCCCCCN(CCNC(=O)c1ccc(CNC[C@H](CNC(=O)c2nc(Cl)c(N)nc2N)Cc2ccccc2C)cc1)C[C@@H](O)[C@@H](O)[C@H](O)[C@H](O)CO` [Example 9, 3,5-diamino-6-chloro-N—((R)-3-((4-((2-(hexyl((2R,3R,4R,5R)-2,3,4,5,6-pentahydroxyhexyl)amino)ethyl)carbamoyl)benzyl)amino)-2-(2-methylbenzyl)propyl)pyrazine-2-carboxamide Dihydrochloride] was tested. Which IC50 did it give?
Answer: 2.51 nM

Question: How did the IC50 turn out when `CCCCCCN(CCNC(=O)c1ccc(CNC[C@H](CNC(=O)c2nc(Cl)c(N)nc2N)Cc2ccccc2C)cc1)C[C@H](O)[C@@H](O)[C@H](O)[C@H](O)CO` [Example 10, 3,5-diamino-6-chloro-N—((R)-3-((4-((2-(hexyl((2S,3R,4R,5R)-2,3,4,5,6-pentahydroxyhexyl)amino)ethyl)carbamoyl)benzyl)amino)-2-(2-methylbenzyl)propyl)pyrazine-2-carboxamide] was run?
Answer: 2.51 nM

Question: Which IC50 does the source give for `CCCCCCN(CCNC(=O)Oc1ccc(CNC[C@H](CNC(=O)c2nc(Cl)c(N)nc2N)Cc2ccccc2C)cc1)C[C@H](O)[C@@H](O)[C@H](O)[C@H](O)CO` [Example 11, 4-(((R)-3-(3,5-diamino-6-chloropyrazine-2-carboxamido)-2-(2-methylbenzyl)propylamino)methyl)phenyl 2-(hexyl((2S,3R,4R,5R)-2,3,4,5,6-pentahydroxyhexyl)amino)ethylcarbamate] here?
Answer: 1.58 nM

Question: For `CCCCCCN(CCNC(=O)c1ccc(CCNC[C@H](CNC(=O)c2nc(Cl)c(N)nc2N)Cc2ccccc2C)cc1)C[C@H](O)[C@@H](O)[C@H](O)[C@H](O)CO` [Example 12, 3,5-diamino-6-chloro-N—((R)-3-((4-((2-(hexyl((2S,3R,4R,5R)-2,3,4,5,6-pentahydroxyhexyl)amino)ethyl)carbamoyl)phenethyl)amino)-2-(2-methylbenzyl)propyl)pyrazine-2-carboxamide Dihydrochloride], which IC50 is on record?
Answer: 0.251 nM
